Test results as given in ChEMBL document CHEMBL1157629, “Acetylcholinesterase inhibitors from the toadstool Cortinarius infractus” (Bioorg Med Chem, 2010).
Active and inactive are the calls of the source. The rule behind the calls is not given here.

Assays:
[1] = molecular target: T1, Acetylcholinesterase (Bos taurus, UniProt P23795)
T1 sequence (P23795 whole entry): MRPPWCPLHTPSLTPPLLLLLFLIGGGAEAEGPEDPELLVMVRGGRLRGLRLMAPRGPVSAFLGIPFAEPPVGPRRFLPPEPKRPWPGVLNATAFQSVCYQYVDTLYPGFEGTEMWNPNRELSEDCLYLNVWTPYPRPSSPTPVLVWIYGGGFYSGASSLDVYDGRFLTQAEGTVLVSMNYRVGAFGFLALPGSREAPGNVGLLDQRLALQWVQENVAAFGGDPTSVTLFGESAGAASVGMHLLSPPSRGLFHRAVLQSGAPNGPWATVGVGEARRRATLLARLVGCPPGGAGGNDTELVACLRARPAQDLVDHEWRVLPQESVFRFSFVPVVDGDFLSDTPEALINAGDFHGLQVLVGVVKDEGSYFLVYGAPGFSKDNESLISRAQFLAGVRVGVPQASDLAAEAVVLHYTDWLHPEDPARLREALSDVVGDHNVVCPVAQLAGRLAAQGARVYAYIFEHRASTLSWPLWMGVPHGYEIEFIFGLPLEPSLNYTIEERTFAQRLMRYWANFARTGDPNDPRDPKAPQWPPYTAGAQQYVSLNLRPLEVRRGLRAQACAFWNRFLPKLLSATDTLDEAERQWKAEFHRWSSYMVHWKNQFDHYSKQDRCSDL
Description: Inhibition of bovine AChE by Elman's method

[2] = molecular target: Cholinesterase (Equus caballus) (UniProt P81908); test: Inhibition of equine serum BChE at 100 uM by Ellman's method
Chain of Cholinesterase (Equus caballus) (P81908 whole entry): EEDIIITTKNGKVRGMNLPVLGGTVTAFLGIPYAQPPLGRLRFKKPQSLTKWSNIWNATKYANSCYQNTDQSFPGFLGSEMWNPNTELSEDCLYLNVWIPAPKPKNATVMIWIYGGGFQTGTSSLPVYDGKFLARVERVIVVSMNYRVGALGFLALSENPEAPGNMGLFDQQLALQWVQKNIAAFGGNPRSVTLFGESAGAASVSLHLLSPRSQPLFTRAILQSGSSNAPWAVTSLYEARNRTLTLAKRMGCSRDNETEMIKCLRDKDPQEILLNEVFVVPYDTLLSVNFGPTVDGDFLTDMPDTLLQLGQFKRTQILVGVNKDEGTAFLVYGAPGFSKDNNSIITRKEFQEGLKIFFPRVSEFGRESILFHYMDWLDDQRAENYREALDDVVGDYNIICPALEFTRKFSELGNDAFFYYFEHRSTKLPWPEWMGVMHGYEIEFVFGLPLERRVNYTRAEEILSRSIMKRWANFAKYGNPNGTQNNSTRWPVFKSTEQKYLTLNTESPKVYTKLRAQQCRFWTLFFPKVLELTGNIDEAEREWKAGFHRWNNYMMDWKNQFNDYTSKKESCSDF

[3] = tested on: HepG2; test: Cytotoxicity against human HepG2 cells assessed as LDH release at 100 uM after 24 hrs; type: cell-based; conditions: hepg2, 24 h
[4] = Cytotoxicity against human HepG2 cells assessed as cell viability at 100 uM after 24 hrs; type: cell-based; conditions: read-out: Activity
[5] = tested on: HepG2; test: Cytotoxicity against human HepG2 cells assessed as LDH release at 10 uM after 24 hrs; type: cell-based; conditions: hepg2, 24 h
[6] = Cytotoxicity against human HepG2 cells assessed as cell viability at 10 uM after 24 hrs; type: cell-based; conditions: read-out: Activity
[7] = Cytotoxicity against human SH-SY5Y cells assessed as cell viability at 100 uM after 24 hrs; type: cell-based; conditions: read-out: Activity
[8] = tested on: SH-SY5Y; test: Cytotoxicity against human SH-SY5Y cells assessed as LDH release at 100 uM after 24 hrs; type: cell-based
[9] = Cytotoxicity against human SH-SY5Y cells assessed as cell viability at 10 uM after 24 hrs; type: cell-based; conditions: read-out: Activity
[10] = tested on: SH-SY5Y; test: Cytotoxicity against human SH-SY5Y cells assessed as LDH release at 10 uM after 24 hrs; type: cell-based
[11] = Inhibition of amyloid beta (1-40) self-aggregation at 25 uM by thioflavin T fluorescence assay

| SMILES | IC50 [1] | inhibition [2] | Activity [3] | viability at 24 h, 100 µM [4] | Activity [5] | viability at 24 h, 10 µM [6] | viability at 24 h, 100 µM [7] | Activity [8] | viability at 24 h, 10 µM [9] | Activity [10] | inhibition [11] |
| --- | --- | --- | --- | --- | --- | --- | --- | --- | --- | --- | --- |
| O=c1cc2c3c4c(cc[n+]3CCC2)c2cc(O)ccc2n14.[Cl-] | 12.7 µM | inactive | 0.56% | 101% | 0.13% | 98.7% | 98.3% | 0.97% | 96.7% | -1.86% | Active |
| O=c1cc2c3c4c(cc[n+]3CCC2)c2ccccc2n14.[Cl-] [INFRACTOPICRIN] | 9.72 µM | inactive | 1.48% | 99.1% | 2.23% | 100% | 97.7% | 1.33% | 97.1% | -0.07% | 50% |
